Among the data in PubChem BioAssay AID256 (DTP/NCI, 2004) are T/C values, retold here.

This assay deals with CD2F1 mice, L1210 leukemia ip, survival T/C. Briefly: NCI In Vivo Anticancer Drug Screen. Data for tumor model L1210 Leukemia (intraperitoneal) in CD2F1 (CDF1) mice. The settings on record: higher = longer survival. In short, it runs like this: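 Mice carrying a transplanted tumor received test compound or vehicle alone. The value is the measurement in the treated group divided by that in the vehicle-treated control group.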

[1] abbreviates: endpoint: mean survival time, dose: 100.0 mg/kg/injection, schedule: Q04DX003 (ip), vehicle: saline with Tween-80.
The mark [2] stands for this setting: endpoint: mean survival time, dose: 25.0 mg/kg/injection, schedule: Q01DX009 (ip), vehicle: saline with Tween-80.
Where [3] appears, read: endpoint: mean survival time, dose: 50.0 mg/kg/injection, schedule: Q01DX009 (ip), vehicle: saline with Tween-80.
The mark [4] stands for this setting: endpoint: mean survival time, dose: 100.0 mg/kg/injection, schedule: Q01DX009 (ip), vehicle: saline with Tween-80.
[5] abbreviates: endpoint: mean survival time, dose: 100.0 mg/kg/injection, schedule: Q04DX003 (ip), vehicle: saline.
Setting [6] is: endpoint: mean survival time, dose: 200.0 mg/kg/injection, schedule: Q04DX003 (ip), vehicle: saline with Tween-80.
Where [7] appears, read: endpoint: mean survival time, dose: 400.0 mg/kg/injection, schedule: Q04DX003 (ip), vehicle: saline with Tween-80.
The mark [8] stands for this setting: endpoint: mean survival time, dose: 200.0 mg/kg/injection, schedule: Q01DX009 (ip), vehicle: saline with Tween-80.
Where [9] appears, read: endpoint: mean survival time, dose: 400.0 mg/kg/injection, schedule: Q01DX009 (ip), vehicle: saline with Tween-80.
[10] abbreviates: endpoint: mean survival time, dose: 12.5 mg/kg/injection, schedule: Q01DX009 (ip), vehicle: saline with Tween-80.
Where [11] appears, read: endpoint: mean survival time, dose: 6.25 mg/kg/injection, schedule: Q01DX009 (ip), vehicle: saline with Tween-80.

Inconclusive results and toxic doses are left out.

As for `C[NH-].C[NH-].[Br][Pt+2][Br]`, the T/C was 106 % of control (endpoint: mean survival time, dose: 1.25 mg/kg/injection, schedule: Q04DX003 (ip), vehicle: water); 108 % of control (endpoint: mean survival time, dose: 2.5 mg/kg/injection, schedule: Q04DX003 (ip), vehicle: water); 110 % of control (endpoint: mean survival time, dose: 5.0 mg/kg/injection, schedule: Q04DX003 (ip), vehicle: water); 97 % of control (endpoint: mean survival time, dose: 10.0 mg/kg/injection, schedule: Q04DX003 (ip), vehicle: water).
For `COc1ccccc1NC(=O)N(CCCl)N=O`, the T/C (endpoint: mean survival time, dose: 1.5 mg/kg/injection, schedule: Q01DX009 (ip), vehicle: carboxymethylcellulose (CMC)) was 115 % of control and the T/C (endpoint: mean survival time, dose: 3.5 mg/kg/injection, schedule: Q01DX009 (ip), vehicle: carboxymethylcellulose (CMC)) was 168 % of control.
`CCC(C(=O)O)C(=O)O.[NH-]CC[NH-].[Pt+2]`: the T/C (endpoint: mean survival time, dose: 25.0 mg/kg/injection, schedule: Q04DX003 (ip), vehicle: saline with Tween-80) was 101 % of control; the T/C (endpoint: mean survival time, dose: 50.0 mg/kg/injection, schedule: Q04DX003 (ip), vehicle: saline with Tween-80) is 104 % of control; the T/C under setting [1] is 112 % of control.
Turning to `C=CCOCC(O)CN1CCCCC1` (stereo not given), the T/C is 116 % of control (endpoint: mean survival time, dose: 50.0 mg/kg/injection, schedule: Q01DX009 (ip), vehicle: saline) and 96 % of control (endpoint: mean survival time, dose: 100.0 mg/kg/injection, schedule: Q01DX009 (ip), vehicle: saline).
In the case of `CCCCNCCN(CC)CC`, the T/C by setting is: under setting [2], 94 % of control; (endpoint: mean survival time, dose: 25.0 mg/kg/injection, schedule: Q04DX003 (ip), vehicle: saline) 94 % of control; under setting [3], 96 % of control; (endpoint: mean survival time, dose: 50.0 mg/kg/injection, schedule: Q04DX003 (ip), vehicle: saline) 89 % of control; under setting [4], 93 % of control; under setting [5], 97 % of control.
For `Cc1c(-c2ccc3c(c2)OCO3)no[n+]1[O-]`, the T/C reads like this: under setting [1], 91 % of control; under setting [6], 98 % of control; under setting [7], 88 % of control.
For `COc1ccc(CCNC(=O)c2ccc(OC)c(OC)c2)cc1OC`, the T/C reads like this: (endpoint: mean survival time, dose: 12.5 mg/kg/injection, schedule: Q01DX009 (ip), vehicle: other) 104 % of control; (endpoint: mean survival time, dose: 25.0 mg/kg/injection, schedule: Q01DX009 (ip), vehicle: other) 90 % of control; (endpoint: mean survival time, dose: 50.0 mg/kg/injection, schedule: Q01DX009 (ip), vehicle: other) 103 % of control; (endpoint: mean survival time, dose: 100.0 mg/kg/injection, schedule: Q01DX009 (ip), vehicle: other) 98 % of control; (endpoint: mean survival time, dose: 200.0 mg/kg/injection, schedule: Q01DX009 (ip), vehicle: other) 97 % of control.
Take `Cc1ccc([N+](=O)[O-])cc1NC(=O)Nc1cc([N+](=O)[O-])ccc1O`: the T/C is, setting by setting: under setting [4], 91 % of control; under setting [8], 96 % of control; under setting [9], 107 % of control.
Regarding `O=[N+]([O-])c1ccc(N/N=C/c2ccc(CO)cc2)c([N+](=O)[O-])c1`, the T/C reads like this: (endpoint: mean survival time, dose: 200.0 mg/kg/injection, schedule: Q04DX003 (ip), vehicle: saline) 91 % of control; (endpoint: mean survival time, dose: 400.0 mg/kg/injection, schedule: Q04DX003 (ip), vehicle: saline) 92 % of control.
Regarding `COc1ccc(N=NN(C)C(=O)c2ccccc2)cc1`, the T/C is, setting by setting: (endpoint: mean survival time, dose: 50.0 mg/kg/injection, schedule: Q01DX009 (ip), vehicle: Klucel (hydroxypropylcellulose) (HPC)) 107 % of control; (endpoint: mean survival time, dose: 100.0 mg/kg/injection, schedule: Q01DX009 (ip), vehicle: Klucel (hydroxypropylcellulose) (HPC)) 117 % of control; (endpoint: mean survival time, dose: 400.0 mg/kg/injection, schedule: Q01DX009 (ip), vehicle: Klucel (hydroxypropylcellulose) (HPC)) 161 % of control.
With `CNC(=O)c1ccc[n+](CC(=O)NCc2ccccc2)c1`, under setting [5], the T/C was 107 % of control.
For the compound `CCOC(=O)C1(C(=O)OCC)C2CC=CCC21` (stereo not given), the T/C (endpoint: mean survival time, dose: 50.0 mg/kg/injection, schedule: Q01DX009 (ip), vehicle: acetone) was 100 % of control; the T/C (endpoint: mean survival time, dose: 100.0 mg/kg/injection, schedule: Q01DX009 (ip), vehicle: acetone) was 92 % of control; the T/C (endpoint: mean survival time, dose: 200.0 mg/kg/injection, schedule: Q01DX009 (ip), vehicle: acetone) was 97 % of control.
Take `COc1ccc(/C=N\NC(=O)CNC(=O)Nc2cccc(C(F)(F)F)c2)cc1OC`: the T/C is, setting by setting: under setting [10], 87 % of control; under setting [4], 96 % of control; under setting [8], 96 % of control.
As to `CCCCCOC(=O)CC(N)C(=O)OCCCCC` (stereo not given), the T/C under setting [3] was 96 % of control; the T/C under setting [4] is 100 % of control; the T/C under setting [1] was 93 % of control; the T/C under setting [8] was 91 % of control; the T/C under setting [6] was 93 % of control.
As to `O=C/C=C/C=C/C=C/c1ccccc1`, the T/C by setting is: (endpoint: mean survival time, dose: 62.5 mg/kg/injection, schedule: Q01DX001 (ip), vehicle: distilled water + alcohol) 93 % of control; (endpoint: mean survival time, dose: 125.0 mg/kg/injection, schedule: Q01DX001 (ip), vehicle: distilled water + alcohol) 96 % of control; (endpoint: mean survival time, dose: 250.0 mg/kg/injection, schedule: Q01DX001 (ip), vehicle: distilled water + alcohol) 92 % of control; (endpoint: mean survival time, dose: 500.0 mg/kg/injection, schedule: Q01DX001 (ip), vehicle: distilled water + alcohol) 90 % of control; (endpoint: median survival time, dose: 50.0 mg/kg/injection, schedule: Q01DX009 (ip), vehicle: saline) 98 % of control; (endpoint: median survival time, dose: 100.0 mg/kg/injection, schedule: Q01DX009 (ip), vehicle: saline) 106 % of control. In addition, the T/C is, setting by setting: (endpoint: median survival time, dose: 200.0 mg/kg/injection, schedule: Q01DX009 (ip), vehicle: saline) 100 % of control; (endpoint: median survival time, dose: 400.0 mg/kg/injection, schedule: Q01DX009 (ip), vehicle: saline) 101 % of control; (endpoint: median survival time, dose: 800.0 mg/kg/injection, schedule: Q01DX009 (ip), vehicle: saline) 100 % of control.
For the compound `O=C(NCCC1CCC2OC2C1)c1ccccc1` (stereo not given), the T/C under setting [4] was 96 % of control; the T/C under setting [1] is 107 % of control; the T/C under setting [8] was 98 % of control; the T/C under setting [6] was 100 % of control; the T/C under setting [9] is 96 % of control; the T/C under setting [7] is 94 % of control.
Turning to `COC1=C(C)C(=O)C2=C(C1=O)C(COC(N)=O)C(=O)C1NC1CN2C` (stereo not given), the T/C (endpoint: mean survival time, dose: 4.7 mg/kg/injection, schedule: Q01DX001 (ip), vehicle: carboxymethylcellulose (CMC)) was 110 % of control.
As to `CC(=O)Nc1cccc(N=Cc2ccc(N(CCOS(C)(=O)=O)CCOS(C)(=O)=O)cc2C)c1`, the T/C is, setting by setting: under setting [11], 123 % of control; (endpoint: mean survival time, dose: 8.0 mg/kg/injection, schedule: Q01DX009 (ip), vehicle: saline with Tween-80) 118 % of control; under setting [2], 124 % of control.
For the compound `COc1ccc(-n2cnc3c(=O)[nH]cnc32)cc1`, the T/C is, setting by setting: (endpoint: mean survival time, dose: 100.0 mg/kg/injection, schedule: Q04DX002 (ip), vehicle: saline with Tween-80) 86 % of control; (endpoint: mean survival time, dose: 200.0 mg/kg/injection, schedule: Q04DX002 (ip), vehicle: saline with Tween-80) 90 % of control; (endpoint: mean survival time, dose: 400.0 mg/kg/injection, schedule: Q04DX002 (ip), vehicle: saline with Tween-80) 86 % of control.
For the compound `OCC1OC(c2[nH]nc3c(NO)ncnc23)C(O)C1O` (stereo not given), the T/C was 107 % of control (endpoint: mean survival time, dose: 75.0 mg/kg/injection, schedule: Q01DX001 (ip), vehicle: saline) and 107 % of control (endpoint: mean survival time, dose: 150.0 mg/kg/injection, schedule: Q01DX001 (ip), vehicle: saline).
With `CSc1ccc(N=C=C(c2ccccc2)c2ccccc2)cc1`, the T/C was 96 % of control under setting [11]; 94 % of control under setting [10]; 94 % of control under setting [2]; 93 % of control under setting [1]; 95 % of control under setting [6]; 97 % of control under setting [7].
